Source: PMC8074287, “Analgesic and Anticancer Activity of Benzoxazole Clubbed 2-Pyrrolidinones as Novel Inhibitors of Monoacylglycerol Lipase” (Molecules, 2021)
“Also recorded” adds a separate entry of the source.

Legend:
[1] = system: HL-60(TB); assay: NCI60 single-dose SRB assay; assay type: cell-based, human; conditions: Leukemia, 10 μM
Experimental: (§1) Compounds 19 and 20 were supplied to National Cancer Institute (USA), for sulforhodamine B (SRB) assay and anticancer screening. Single-dose (10 µM) assay results for compounds 19 and 20 were provided as a mean of percent growth (% G) and growth inhibition (% GI) against 60 cell lines of nine types of cancers and are tabulated in Table 4. […] Both the compounds 19 and 20 were also found active on UO-31 renal cancer cell line with % GI of 21.18 and 29.95, respectively.
(§2) Compounds 19 and 20 were supplied to National Cancer Institute (Bethesda, Maryland, USA), for in vitro sulforhodamine B (SRB) assay, anticancer screening on 60 cell lines of cancers of leukemia, melanoma, and tumors of the kidney, brain, breast, lung, colon, ovary, and prostate, as per their standard protocol. One dose anticancer results (NCI, USA) of compounds 19 and 20 are provided in the Supplementary Materials.

[2] = system: NCI-H460; assay: NCI60 single-dose SRB assay; assay type: cell-based, human; conditions: NCI-H460, Non-Small Cell Lung Cancer, 10 μM
Experimental: as §1, §2

[3] = system: OVCAR-8; assay: NCI60 single-dose SRB assay; assay type: cell-based, human; conditions: OVCAR-8, Ovarian Cancer, 10 μM
Experimental: as §1, §2

[4] = system: OVCAR-4; assay: NCI60 single-dose SRB assay; assay type: cell-based, human; conditions: OVCAR-4, Ovarian Cancer, 10 μM
Experimental: as §1, §2

[5] = system: formalin-induced nociception; assay: Formalin-induced analgesic (nociception) test; assay type: in vivo, Male Wistar rats
Excerpt: The formalin-induced analgesic test is an extensively acknowledged animal nociception model. In order to evaluate both central and peripheral effects of the compound (20), formalin-induced nociception model was selected for analgesic activity. The formalin induced behavioral response comprises two typical phases, stage I and II. Stage I persists up to five minutes after formalin injection and is characterized by acute pain with vigorous licking and biting of the injected site. Stage I consists the action formalin on afferent C-fiber nociceptors. While Stage II starts 10–30 min after formalin injection and persists till 60 min, characterized by periodic licking and biting of the injected site. Stage II imitates the action of central sensitization of the spinal dorsal horn neurons.
Figure 5 Formalin-induced analgesic test; a dose of the test compound 20 (5, 10, 30, and 50 mg/kg, p.o, suspended in 0.5% CMC) was administered 4 h before formalin injection (50 µL, 2.5%). Reference drug, gabapentin (100 mg/kg, i.p, dissolved in 0.9% normal saline) was injected 30 min before formalin injection. Total paw licking and biting duration, Stage I (white bar, 0–5 min) and stage II (black bar, 10–30 min) was recorded as a measure of pain behavior. Data is represented as mean ± SEM from a group of 10 animals. * p < 0.05, ** p < 0.01, p > 0.05 (NS, nonsignificant) vs. control (vehicle). GBP: Gabapentin; D5, D10, D30, andD50 are the dose concentrations of test compound 20.
Male Wistar rats (180–200 g) were obtained with the permission of IAEC (proposal number 1048) from Jamia Hamdard, New Delhi, India. The results of test compound 20 and reference drug, Gabapentin (GBP), were statistically compared with the control group.

Structure (SMILES)	% G [1] [%]	% GI [1] [%]	% G [2] [%]	% GI [2] [%]	% G [3] [%]	% GI [3] [%]	% G [4] [%]	% GI [4] [%]	pain response in acute (Stage I) and late (Stage II) phases ([5]; 5, 10, 30, and 50 mg/kg p.o., 4 h prior to formalin injection)	reduction in pain response compared with positive control GBP ([5]; at 30 mg/kg p.o., GBP 100 mg/kg i.p.)
O=C1CC(c2nc3ccccc3o2)CN1c1ccc([N+](=O)[O-])cc1 (stereo not drawn) [Compound 19, 4-(Benzo[d]oxazol-2-yl)-1-(4-nitrophenyl)pyrrolidin-2-one]	100.09	−0.09	102.33	−2.33	101.95	−1.95	106.27	−6.27		
NS(=O)(=O)c1ccc(N2CC(c3nc4ccccc4o3)CC2=O)cc1 (stereo not drawn) [Compound 20, 4-(4-(Benzo[d]oxazol-2-yl)-2-oxopyrrolidin-1-yl)benzenesulfonamide]	96.15	3.85	104.20	−4.20	97.49	2.51	99.47	0.53	reduced the pain response in acute and late stages in a dose-dependent manner; also recorded: reduced the pain response significantly both in acute (Stage I) and late (Stage II) phases, in a dose-dependent manner; also recorded: reduced the pain response significantly both in acute (stage I) and late (stage II) phases in a dose-dependent manner	better potency than the positive control gabapentin (GBP)
